Converted amounts (≈) assume the structure as drawn.
What was measured:
Assay type in all cases: physicochemical
[1] = Competitive slurry experiments at different water activities
Procedure: Competitive slurry experiments at different water activities at 25° C. and at 50° C. were performed. Competitive slurries of a (1:1) physical mixture of Modifications HB and B at different water activities were also performed.

Hygroscopicity by DVS = assay: Hygroscopicity by DVS
Text: Crystalline form HB is a hydrated form of (S)-3-amino-4-(5-(4-((5-chloro-3-fluoropyridin-2-yl)oxy)phenyl)-2H-tetrazol-2-yl)butanoic acid.

[2] = Stability in solvent: equilibration of Form HB with solvent, residue analysed by XRPD; settings: slurry experiments
Procedure: Equilibrations with solvent were carried out to investigate the relative stability of form HB in solvent. 50 mg of Form HB is equilibrated with 1 mL solvent for 24 h (or 7 days, or 28 days) in a water bath at 25° C. or for 7 days at 50° C. The solutions are filtered and dried for 10 minutes in air. The resulting solid is analyzed by XRPD.
Various solvent were investigated: acetone, acetonitrile, dichloromethane, dioxane, ethanol, heptane, methanol, THF, acetone/water mixtures from 10/90 to 90/10, acetonitrile/water mixtures from 10/90 to 90/10, dioxane/water mixtures from 10/90 to 90/10 and ethanol/water mixture from 10/90 to 90/10, tetrahydrofuran/water (50/50) and 1-propanol/water (70/30).

[3] = Solid state stability in bulk (HPLC degradation products, XRPD)
Procedure: The chemical and physical stability of form B and form HB was investigated, exposing the individual forms to high humidity at temperatures ranging from 25-80° C.
The degradation products were analyzed by HPLC and the sample was analyzed by XPRD to detect any changes to the solid state.

[4] = Solubility in aqueous buffers and bio-relevant media

N[C@@H](CC(=O)O)Cn1nnc(-c2ccc(Oc3ncc(Cl)cc3F)cc2)n1 (mixture of isomers) [Physical mixture of HB and B (1:1), (S)-3-amino-4-(5-(4-((5-chloro-3-fluoropyridin-2-yl)oxy)phenyl)-2H-tetrazol-2-yl)butanoic acid]
Solid form after competitive slurry ([1]; 25 Degrees Celsius, Acetonitrile, aw 0.00, 2 days): Form B | Solid form after competitive slurry ([1]; 25 Degrees Celsius, Acetonitrile, aw 0.00, 5 days): Form B | Solid form after competitive slurry ([1]; 25 Degrees Celsius, Acetonitrile/water (83:17), aw 0.93, 2 days): Forms HB + B | Solid form after competitive slurry ([1]; 25 Degrees Celsius, Acetonitrile/water (83:17), aw 0.93, 5 days): Forms HB + B | Solid form after competitive slurry ([1]; 25 Degrees Celsius, Acetonitrile/water (88:12), aw 0.90, 2 days): Forms HB + B | Solid form after competitive slurry ([1]; 25 Degrees Celsius, Acetonitrile/water (88:12), aw 0.90, 5 days): Forms HB + B | Solid form after competitive slurry ([1]; 25 Degrees Celsius, Acetonitrile/water (92:8), aw 0.82, 2 days): Forms HB + B | Solid form after competitive slurry ([1]; 25 Degrees Celsius, Acetonitrile/water (92:8), aw 0.82, 5 days): Forms HB + B | Solid form after competitive slurry ([1]; 25 Degrees Celsius, Acetonitrile/water (97:3), aw 0.50, 2 days): Forms HB + B | Solid form after competitive slurry ([1]; 25 Degrees Celsius, Acetonitrile/water (97:3), aw 0.50, 5 days): Form B | Solid form after competitive slurry ([1]; 25 Degrees Celsius, Acetonitrile/water (98:2), aw 0.44, 2 days): Form B | Solid form after competitive slurry ([1]; 25 Degrees Celsius, Acetonitrile/water (98:2), aw 0.44, 5 days): Form B | Solid form after competitive slurry ([1]; 25 Degrees Celsius, Methanol, aw 0.00, 2 days): Form B | Solid form after competitive slurry ([1]; 25 Degrees Celsius, Methanol, aw 0.00, 5 days): Form B | Solid form after competitive slurry ([1]; 25 Degrees Celsius, Methanol/water (22:78), aw 0.90, 2 days): Forms HB + B | Solid form after competitive slurry ([1]; 25 Degrees Celsius, Methanol/water (22:78), aw 0.90, 5 days): Forms HB + B | Solid form after competitive slurry ([1]; 25 Degrees Celsius, Methanol/water (57:43), aw 0.70, 2 days): Forms HB + B | Solid form after competitive slurry ([1]; 25 Degrees Celsius, Methanol/water (57:43), aw 0.70, 5 days): Forms HB + B | Solid form after competitive slurry ([1]; 25 Degrees Celsius, Methanol/water (77:23), aw 0.50, 2 days): Form B | Solid form after competitive slurry ([1]; 25 Degrees Celsius, Methanol/water (77:23), aw 0.50, 5 days): Form B | Solid form after competitive slurry ([1]; 25 Degrees Celsius, Methanol/water (89:11), aw 0.30, 2 days): Form B | Solid form after competitive slurry ([1]; 25 Degrees Celsius, Methanol/water (89:11), aw 0.30, 5 days): Form B | Solid form after competitive slurry ([1]; 25 Degrees Celsius, Methanol/water (97:3), aw 0.11, 2 days): Form B | Solid form after competitive slurry ([1]; 25 Degrees Celsius, Methanol/water (97:3), aw 0.11, 5 days): Form B | Solid form after competitive slurry ([1]; 25 Degrees Celsius, Water, aw 1.00, 2 days): Forms HB + B | Solid form after competitive slurry ([1]; 25 Degrees Celsius, Water, aw 1.00, 5 days): Forms HB + B | Water activity (aw) at which the mixture converted into pure Form B ([1]; 25° C.): ≤ 0.5 | Solid form after competitive slurry ([1]; 25° C., water activities above aw 0.5): remained unchanged | Solid form after competitive slurry ([1]; 50 degrees, Acetonitrile, aw 0.00, 2 days): Form B | Solid form after competitive slurry ([1]; 50 degrees, Acetonitrile, aw 0.00, 5 days): Form B | Solid form after competitive slurry ([1]; 50 degrees, Acetonitrile/water (83:17), aw 0.90, 2 days): Forms B + HB | Solid form after competitive slurry ([1]; 50 degrees, Acetonitrile/water (83:17), aw 0.90, 5 days): Form B | Solid form after competitive slurry ([1]; 50 degrees, Acetonitrile/water (88:12), aw 0.86, 2 days): Form B | Solid form after competitive slurry ([1]; 50 degrees, Acetonitrile/water (88:12), aw 0.86, 5 days): Form B | Solid form after competitive slurry ([1]; 50 degrees, Acetonitrile/water (92:8), aw 0.77, 2 days): Form B | Solid form after competitive slurry ([1]; 50 degrees, Acetonitrile/water (92:8), aw 0.77, 5 days): Form B | Solid form after competitive slurry ([1]; 50 degrees, Acetonitrile/water (97:3), aw 0.46, 2 days): Form B | Solid form after competitive slurry ([1]; 50 degrees, Acetonitrile/water (97:3), aw 0.46, 5 days): Form B | Solid form after competitive slurry ([1]; 50 degrees, Acetonitrile/water (98:2), aw 0.34, 2 days): Form B | Solid form after competitive slurry ([1]; 50 degrees, Acetonitrile/water (98:2), aw 0.34, 5 days): Form B | Solid form after competitive slurry ([1]; 50 degrees, Methanol, aw 0.00, 2 days): Form B | Solid form after competitive slurry ([1]; 50 degrees, Methanol, aw 0.00, 5 days): Form B | Solid form after competitive slurry ([1]; 50 degrees, Methanol/water (22:78), aw 0.90, 2 days): Forms HB + B | Solid form after competitive slurry ([1]; 50 degrees, Methanol/water (22:78), aw 0.90, 5 days): Forms B + HB | Solid form after competitive slurry ([1]; 50 degrees, Methanol/water (57:43), aw 0.71, 2 days): Form B | Solid form after competitive slurry ([1]; 50 degrees, Methanol/water (57:43), aw 0.71, 5 days): Form B | Solid form after competitive slurry ([1]; 50 degrees, Methanol/water (77:23), aw 0.51, 2 days): Form B | Solid form after competitive slurry ([1]; 50 degrees, Methanol/water (77:23), aw 0.51, 5 days): Form B | Solid form after competitive slurry ([1]; 50 degrees, Methanol/water (89:11), aw 0.31, 2 days): Form B | Solid form after competitive slurry ([1]; 50 degrees, Methanol/water (89:11), aw 0.31, 5 days): Form B | Solid form after competitive slurry ([1]; 50 degrees, Methanol/water (97:3), aw 0.21, 2 days): Form B | Solid form after competitive slurry ([1]; 50 degrees, Methanol/water (97:3), aw 0.21, 5 days): Form B | Solid form after competitive slurry ([1]; 50 degrees, Water, aw 1.00, 2 days): Forms B + HB | Solid form after competitive slurry ([1]; 50 degrees, Water, aw 1.00, 5 days): Forms HB + B | Maximum water activity (aw) for transformation to Form B ([1]; 50° C.): ≤ 0.7

N[C@@H](CC(=O)O)Cn1nnc(-c2ccc(Oc3ncc(Cl)cc3F)cc2)n1 [Form B, (S)-3-amino-4-(5-(4-((5-chloro-3-fluoropyridin-2-yl)oxy)phenyl)-2H-tetrazol-2-yl)butanoic acid]
Maximum water uptake (Hygroscopicity by DVS; 25° C. at 90% RH by DVS): less than 0.7% | Hygroscopicity (Hygroscopicity by DVS; by DVS): slightly hygroscopic | Form conversion through slurry [2]: does not transform into other form | Hydrate formation ([3]; 1 week at 40° C./90% RH): no hydrate formation was detected | Stability in bulk ([3]; 1 week at 40° C./90% RH): stable | Chemical and physical stability in bulk ([3]; test conditions 1-5: 1 week, tight or open container, room temperature to 80° C., up to 92% RH): displayed good stability and did not convert at all | solubility ([4]; FaSSIF-V2 (pH=6.6)): 70 µg/mL (≈ 178 µM) | solubility ([4]; FeSSIF-V2 (pH=5.9)): 180 µg/mL (≈ 458 µM) | solubility ([4]; aqueous buffers, aqueous buffer, pH values of 4 to 7): 50 µg/mL (≈ 127 µM)

From US11993582B2, “Crystalline forms of a LTA4H inhibitor” (Novartis AG, priority 2018, dated 2024)
